Laboratory results: ChEMBL document CHEMBL3045202, “Synthesis of some bisindolyl analogs for in vitro cytotoxic and DNA cleavage studies” (Med Chem Res, 2013)
Calls of active or inactive are those of the source. No cut-off for these calls is given here.

Tests used:
A549 = test: Cytotoxicity against Homo sapiens (human) A549 cells by MTT assay; type: functional, cell-based
HeLa = test: Cytotoxicity against Homo sapiens (human) HeLa cells by MTT assay; type: functional, cell-based
HEp-2 = test: Cytotoxicity against Homo sapiens (human) Hep2 cells by MTT assay; type: functional, cell-based
Escherichia coli = test: Induction of DNA cleavage in Escherichia coli at 1 ug/ml after 2 hr by agarose gel electrophoretic analysis

CC1=NNC(=O)C1C(c1c[nH]c2ccccc12)c1c(-c2ccccc2)[nH]c2ccccc12 (stereo not drawn)
IC50 (A549): 5.5 µM | IC50 (HeLa): 7.7 µM | IC50 (HEp-2): 6.7 µM

CC1=NNC(=O)C1C(c1c[nH]c2ccccc12)c1c(-c2ccccc2)[nH]c2ccc(C)cc12 (stereo not drawn)
IC50 (A549): 1.3 µM | IC50 (HeLa): 2.4 µM | IC50 (HEp-2): 3.2 µM | Activity (Escherichia coli): Active

CC1=NNC(=O)C1C(c1c(-c2ccccc2)[nH]c2ccccc12)c1c(-c2ccccc2)[nH]c2ccc(Cl)cc12 (stereo not drawn)
IC50 (A549): 31.3 µM | IC50 (HeLa): 29.8 µM | IC50 (HEp-2): 41.7 µM | Activity (Escherichia coli): Active

CC1=NNC(=O)C1C(c1c[nH]c2ccccc12)c1c(-c2ccccc2)[nH]c2ccc(Cl)cc12 (stereo not drawn)
IC50 (A549): 1.6 µM | IC50 (HeLa): 3.8 µM | IC50 (HEp-2): > 100 µM

CC1=NNC(=O)C1C(c1c(-c2ccccc2)[nH]c2ccccc12)c1c(-c2ccccc2)[nH]c2ccc(C)cc12 (stereo not drawn)
IC50 (A549): 22.1 µM | IC50 (HeLa): > 100 µM | IC50 (HEp-2): > 100 µM

CC1=NNC(=O)C1C(c1c(-c2ccccc2)[nH]c2ccc(C)cc12)c1c(-c2ccccc2)[nH]c2ccc(Cl)cc12 (stereo not drawn)
IC50 (A549): 35 µM | IC50 (HeLa): > 100 µM | IC50 (HEp-2): 32.4 µM

CC1=NNC(=O)C1C(c1c(-c2ccccc2)[nH]c2ccc(Cl)cc12)c1c(-c2ccccc2)[nH]c2ccc(Cl)cc12 (stereo not drawn)
IC50 (A549): 7 µM | IC50 (HeLa): 9.5 µM | IC50 (HEp-2): 14.6 µM

COc1ccc2[nH]c(-c3ccccc3)c(C(c3c[nH]c4ccccc34)C3C(=O)NN=C3C)c2c1 (stereo not drawn)
IC50 (A549): 2.7 µM | IC50 (HeLa): 1.7 µM | IC50 (HEp-2): 5.3 µM

COc1ccc2[nH]c(-c3ccccc3)c(C(c3c(-c4ccccc4)[nH]c4ccc(Cl)cc34)C3C(=O)NN=C3C)c2c1 (stereo not drawn)
IC50 (A549): 1.1 µM | IC50 (HeLa): 1.2 µM | IC50 (HEp-2): 6.2 µM | Activity (Escherichia coli): Active

COc1ccc2[nH]c(-c3ccccc3)c(C(c3c(-c4ccccc4)[nH]c4ccc(C)cc34)C3C(=O)NN=C3C)c2c1 (stereo not drawn)
IC50 (A549): 1.8 µM | IC50 (HeLa): > 100 µM | IC50 (HEp-2): 3.5 µM | Activity (Escherichia coli): Active

CC1=NNC(=O)C1C(c1c(-c2ccccc2)[nH]c2ccc(C)cc12)c1c(-c2ccccc2)[nH]c2ccc(C)cc12 (stereo not drawn)
IC50 (A549): 37 µM | IC50 (HeLa): 32.7 µM | IC50 (HEp-2): > 100 µM

COc1cccc2c1C(=O)c1c(O)c3c(c(O)c1C2=O)C[C@@](O)(C(=O)CO)C[C@@H]3O[C@H]1C[C@H](N)[C@H](O)[C@H](C)O1 [DOXORUBICIN]
IC50 (HeLa): 0.71 µM
